Results: patent US20240043943A1, “METHODS AND COMPOSITIONS FOR PROTEASE REPORTER ASSAYS AND MODULATORS” (712 NORTH, INC., priority 2021, published 2024)
Entries after “also recorded” stand apart in the source; their conditions may differ. Counter-ions that a name gives are not always drawn. Like-named read-outs stand apart in the source and are kept apart here. Starred links: 1 amine or outer side, 2 acyl side, 3 side chain; linkers in the order of their positions; H or OH if unused. Positions of bridges follow the written chain, without caps; N, C: chain ends. Non-standard residues stand in square brackets, D forms with d. Residues, ends and D or L forms follow the SMILES beside them. Chains are numbered I, II in the order given. Actinocin(9to1) = Cc1c2oc3c(C)ccc(C(=O)[*:1])c3nc-2c(C(=O)[*:2])c(N)c1=O; NMeV = CN[C@H](C(=O)O)C(C)C; Sar = CNCC(=O)O

Experiments:
[1] = molecular target: T1, OMA1 protease (Homo sapiens, UniProt Q96E52); assay: Rep#15 / Luke-S1 OMA1 reporter bioluminescence assay in Hek293T cells; format: cell-based; set-up: The OMA1 enzyme is dormant under physiological cell culture conditions in these cells; endogenous in cells; host or cells: Hek293T cells, transiently or stably (Luke-S1 line, ATCC PTA-127022) expressing reporter #15; conditions: for OMA1 modulating properties: drugs identified with the OMA1 assays (FIG. 17, FIG. 10)
T1 sequence (Q96E52 144-524): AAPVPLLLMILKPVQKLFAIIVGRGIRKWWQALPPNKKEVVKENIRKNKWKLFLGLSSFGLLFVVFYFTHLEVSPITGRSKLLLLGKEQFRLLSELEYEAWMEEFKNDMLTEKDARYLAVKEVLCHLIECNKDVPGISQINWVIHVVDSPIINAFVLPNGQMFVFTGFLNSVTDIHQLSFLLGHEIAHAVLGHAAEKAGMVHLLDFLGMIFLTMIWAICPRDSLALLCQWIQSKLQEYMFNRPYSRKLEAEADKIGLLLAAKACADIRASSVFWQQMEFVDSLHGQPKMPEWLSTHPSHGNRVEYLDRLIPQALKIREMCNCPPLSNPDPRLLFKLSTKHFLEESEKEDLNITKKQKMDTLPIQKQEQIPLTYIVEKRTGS
Excerpt: Example 1 provides a nonlimiting example of generation and use of a reporter of present invention and illustrates its function. To this end, generation and use of reporter gene #01 (SEQ ID NO: 01) and reporter gene #15 (SEQ ID NO: 15) are described and their function compared to each other. The general design of a reporter of present invention is illustrated in FIG. 1A and its working principle in FIG. 1B. A reporter in general, and reporter gene #01 and reporter gene #15 in particular, can be generated as follows. DNA sequences of a reporter may be codon-optimized in silico or by any other way for expression in a suitable host. DNA sequences of reporter genes #01 and #15 were codon-optimized for expression in humans (SEQ ID NO: 02 and SEQ ID NO: 16, respectively). The (optimized) sequences were synthesized and cloned into a pcDNA3.1 expression vector under the control of a CMV promotor (see FIG. 1 for an illustration of such vector). Of course, an expression system and a host should match for best results. The host in this example were Hek293T cells, which were maintained under standard culture conditions in DMEM with 10% Fetal Bovine Serum and 1% Pen/Strep. For an experiment, Hek293T cells were seeded in opaque white tissue-culture treated 96-well plates at 80% confluency and transfected with vectors carrying reporter gene #01 and reporter gene #15 and 24 hours later incubated for 30 minutes at 37° C. in OptiMEM or in OptiMEM with 10 μM CCCP. After 30 minutes, the OptiMEM cell-culture media was replaced with luciferase substrate (furimazine, Promega) diluted 1:100 in OptiMEM, and bioluminescence was measured with a Fluoroskan Ascent FL (Thermo Scientific) using a 517 nm single-pass filter and 200 milliseconds integration time. […] Reporter #01 comprises a large part of OPA1's amino-terminus as mitochondrial targeting sequence, which is cleaved by the mitochondrial processing peptidase upon mitochondrial import (see Example 2). Reporter #15 was initially envisioned as a control for reporter #01. Reporter #15 therefore lacks the first 66 amino acids of reporter #01 believed to be essential for mitochondrial import.
Example 5 illustrates how mitochondrial toxicity can be measured with reporter and assays of present invention. The OMA1-OPA1 pathway basically serves as a “canary-in-the-coalmine” for a mitochondrial deterioration. […] Hek293T cells expressing reporter #01 and #15 were exposed to CCCP, tipranavir and sorafenib (in OptiMEM) for 30 minutes before the medium was replaced with furimazine (1:100), and bioluminescence measured.
The following non-limiting examples illustrate in more details the in vivo assessment of OMA1 protease activity utilizing an artificial luciferase reporter of present invention stably expressed in Hek293T cells.

[2] = tested on: OPA1; conditions: literature; cited from earlier work
[3] = molecular target: T1, OMA1 protease; conditions: literature; cited from earlier work
[4] = molecular target: T1, OMA1 protease; assay: Rep#15 assay with phenanthroline preincubation before CCCP (OMA1 inhibitor control); format: cell-based; set-up: The OMA1 enzyme is dormant under physiological cell culture conditions in these cells; endogenous in cells; host or cells: Hek293T cells, transiently or stably (Luke-S1 line, ATCC PTA-127022) expressing reporter #15; conditions: 500 μM phenanthroline 1 hour, then 10 μM CCCP 30 minutes
Description: Example 2 refers to FIG. 4 and illustrates hydrolysis of reporter #01 and reporter #15. For this example, transfected cells were selected by puromycin. Reporter cells were exposed for 30 minutes to 10 μM CCCP before being harvested in RIPA buffer and subjected to 12% SDS-PAGE followed by Western-blotting. […] Full-length reporter #01 has a predicted size of 39.6 kDa but was not detected in Western blots. […] At the same time, reporter #15 is not processed upon import, but migrated at its expected size of 31.9 kDa. (Example 7 establishes mitochondrial import by showing co-migration of reporter #15 with OPA1 and OMA1 in mitochondria-enriched fractions.) Reporter #15 appears to be more abundant and stable, which may explain its better performance. […] This provides additional evidence that reporter #15 is indeed localized in mitochondria where it is recognized and hydrolyzed by OMA1. […] Therefore, phenanthroline was used as a positive control in the reporter assay. If reporter #15 indeed is cleaved by OMA1, then phenanthroline should prevent this at least to a certain extend by inhibiting OMA1 and accordingly preserving the signal. Hek293T cells were transfected with reporter gene #15 as described in the preceding example. […] After 30 minutes, the medium was replaced with furimazine (1:100 in OptiMEM), and bioluminescence measured as described in Example 1.

[5] = molecular target: T1, OMA1 protease; assay: Rep#01 OMA1 reporter bioluminescence assay in Hek293T cells; format: cell-based; set-up: The OMA1 enzyme is dormant under physiological cell culture conditions in these cells; endogenous in cells; host or cells: Hek293T cells, transiently or stably (Luke-S1 line, ATCC PTA-127022) expressing reporter #15; conditions: 30 minutes exposure, CCCP 10 μM
Excerpt: Example 1 provides a nonlimiting example of generation and use of a reporter of present invention and illustrates its function. To this end, generation and use of reporter gene #01 (SEQ ID NO: 01) and reporter gene #15 (SEQ ID NO: 15) are described and their function compared to each other. The general design of a reporter of present invention is illustrated in FIG. 1A and its working principle in FIG. 1B. A reporter in general, and reporter gene #01 and reporter gene #15 in particular, can be generated as follows. DNA sequences of a reporter may be codon-optimized in silico or by any other way for expression in a suitable host. DNA sequences of reporter genes #01 and #15 were codon-optimized for expression in humans (SEQ ID NO: 02 and SEQ ID NO: 16, respectively). The (optimized) sequences were synthesized and cloned into a pcDNA3.1 expression vector under the control of a CMV promotor (see FIG. 1 for an illustration of such vector). Of course, an expression system and a host should match for best results. The host in this example were Hek293T cells, which were maintained under standard culture conditions in DMEM with 10% Fetal Bovine Serum and 1% Pen/Strep. For an experiment, Hek293T cells were seeded in opaque white tissue-culture treated 96-well plates at 80% confluency and transfected with vectors carrying reporter gene #01 and reporter gene #15 and 24 hours later incubated for 30 minutes at 37° C. in OptiMEM or in OptiMEM with 10 μM CCCP. After 30 minutes, the OptiMEM cell-culture media was replaced with luciferase substrate (furimazine, Promega) diluted 1:100 in OptiMEM, and bioluminescence was measured with a Fluoroskan Ascent FL (Thermo Scientific) using a 517 nm single-pass filter and 200 milliseconds integration time. […]
Example 5 illustrates how mitochondrial toxicity can be measured with reporter and assays of present invention. […] Hek293T cells expressing reporter #01 and #15 were exposed to CCCP, tipranavir and sorafenib (in OptiMEM) for 30 minutes before the medium was replaced with furimazine (1:100), and bioluminescence measured.

[6] = tested on: mitochondria; conditions: FDA labels, cited from earlier work

Row | Compound | OMA1 modulating properties [1] | other results
1 | Cc1cc(Nc2ncc(Cl)c(Nc3ccccc3S(=O)(=O)C(C)C)n2)c(OC(C)C)cc1C1CCNCC1 [Ceritinib] | OMA1 modulating properties | –
2 | Cc1c2oc3c(C)ccc(C(=O)N[C@@H]4C(=O)N[C@H](C(C)C)C(=O)N5CCC[C@H]5C(=O)N(C)CC(=O)N(C)[C@@H](C(C)C)C(=O)O[C@@H]4C)c3nc-2c(C(=O)N[C@@H]2C(=O)N[C@H](C(C)C)C(=O)N3CCC[C@H]3C(=O)N(C)CC(=O)N(C)[C@@H](C(C)C)C(=O)O[C@@H]2C)c(N)c1=O [Dactinomycin] (I: T[dV]P[Sar][NMeV] / II: T[dV]P[Sar][NMeV]; ester I:1-I:C, II:1-II:C; linker I:N-II:N via Actinocin(9to1)) | OMA1 modulating properties | –
3 | COc1cccc2c1C(=O)c1c(O)c3c(c(O)c1C2=O)C[C@@](O)(C(C)=O)C[C@@H]3O[C@H]1C[C@H](N)[C@H](O)[C@H](C)O1 [Daunorubicin hydrochloride] | OMA1 modulating properties | –
4 | COc1cccc2c1C(=O)c1c(O)c3c(c(O)c1C2=O)C[C@@](O)(C(=O)CO)C[C@@H]3O[C@H]1C[C@H](N)[C@H](O)[C@H](C)O1 [Doxorubicin hydrochloride] | OMA1 modulating properties | –
5 | CC(C)(O)CNc1nc(Nc2ccnc(C(F)(F)F)c2)nc(-c2cccc(C(F)(F)F)n2)n1 [Enasidenib] | OMA1 modulating properties | –
6 | CN1CCN(c2ccc(C(=O)Nc3n[nH]c4ccc(Cc5cc(F)cc(F)c5)cc34)c(NC3CCOCC3)c2)CC1 [Entrectinib] | OMA1 modulating properties | –
7 | CC(=O)[C@]1(O)Cc2c(O)c3c(c(O)c2[C@@H](O[C@H]2C[C@H](N)[C@H](O)[C@H](C)O2)C1)C(=O)c1ccccc1C3=O [Idarubicin hydrochloride] | OMA1 modulating properties | –
8 | Cc1ccc(NC(=O)c2ccc(CN3CCN(C)CC3)cc2)cc1Nc1nccc(-c2cccnc2)n1 [Imatinib] | OMA1 modulating properties | –
9 | Clc1ccc(C(c2ccccc2Cl)C(Cl)Cl)cc1 (stereo not drawn) [Mitotane] | OMA1 modulating properties | –
10 | C=CC(=O)Nc1cc(Nc2nccc(-c3cn(C)c4ccccc34)n2)c(OC)cc1N(C)CCN(C)C [Osimertinib] | OMA1 modulating properties | –
11 | FC(F)(F)c1ccc(CNc2ccc(Cc3c[nH]c4ncc(Cl)cc34)cn2)cn1 [Pexidartinib] | OMA1 modulating properties | –
12 | O=C(c1ccc(OCCN2CCCCC2)cc1)c1c(-c2ccc(O)cc2)sc2cc(O)ccc12 [Raloxifene] | OMA1 modulating properties | –
13 | CNC(=O)c1cc(Oc2ccc(NC(=O)Nc3ccc(Cl)c(C(F)(F)F)c3)c(F)c2)ccn1 [Regorafenib] | OMA1 modulating properties | –
14 | CN(C)C(=O)c1cc2cnc(Nc3ccc(N4CCNCC4)cn3)nc2n1C1CCCC1 [Ribociclib] | OMA1 modulating properties | –
15 | O=C(/C=C\n1cnc(-c2cc(C(F)(F)F)cc(C(F)(F)F)c2)n1)NNc1cnccn1 [Selinexor] | OMA1 modulating properties | –
16 | CC/C(=C(\c1ccccc1)c1ccc(OCCN(C)C)cc1)c1ccccc1 [Tamoxifen citrate] | OMA1 modulating properties | –
17 | Cc1cc(Nc2ncnc3ccc(NC4=NC(C)(C)CO4)cc23)ccc1Oc1ccn2ncnc2c1 [Tucatinib] | OMA1 modulating properties | –
18 | CCCCC(=O)OCC(=O)[C@]1(O)Cc2c(O)c3c(c(O)c2[C@@H](O[C@H]2C[C@H](NC(=O)C(F)(F)F)[C@H](O)[C@H](C)O2)C1)C(=O)c1c(OC)cccc1C3=O [Valrubicin] | OMA1 modulating properties | –
19 | N.N.[Cl][Pt][Cl] [cisplatin] | – | OPA1 cleavage [2]: can promote OPA1 cleavage
20 | c1cnc2c(c1)ccc1cccnc12 [phenanthroline] | – | effect on OMA1 protease [3]: can inhibit OMA1 protease in vitro; bioluminescence signal of reporter #15 after CCCP with inhibitor pretreatment [4]: prevented reporter #15 deactivation; also recorded: largely preserved
21 | CNC(=O)c1cc(Oc2ccc(NC(=O)Nc3ccc(Cl)c(C(F)(F)F)c3)cc2)ccn1 [sorafenib, Sorafenib] | OMA1 modulating properties | OPA1 cleavage [2]: can promote OPA1 cleavage; bioluminescence signal of reporter #15 ([1]; Hek293T, 30 minutes exposure, CCCP 10 μM): significantly reduced signal; also recorded: significantly reduced bioluminescence; bioluminescence signal of reporter #01 [5]: significantly reduced bioluminescence; bioluminescence signal of reporter #01 ([5]; listed as Sorafenib): comparable effects; mitochondrial toxicity [6]: exhibit mitochondrial toxicity
22 | CCC[C@@]1(CCc2ccccc2)CC(O)=C([C@H](CC)c2cccc(NS(=O)(=O)c3ccc(C(F)(F)F)cn3)c2)C(=O)O1 [tipranavir] | – | mitochondrial toxicity [6]: exhibit mitochondrial toxicity; mitochondrial toxicity ([6]; listed as Tipranavir): cause mitochondrial toxicity
23 | Dabrafenib mesylate | OMA1 modulating properties | –
